Source: patent US20220087987A1, “A METHOD FOR TREATING SWI/SNF COMPLEX-DEFICIENT CANCERS COMPRISING GLUTATHIONE (GSH) METABOLIC PATHWAY INHIBITOR” (National Cancer Center, priority 2018, published 2022)

Experiments:
ARID1A-WT HCT116 cells = test: Drug library screen, cell viability (CellTiter-Glo); assay type: cell-based, human; set-up: key to Cell viability, WT: % viability relative to DMSO solvent-treated cells; conditions: HCT116 ARID1A-WT; 10 μM for 5 days; relative to cells treated with solvent (DMSO)
Summary of the method: (§1)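 ARID1A-WT and ARID1A-KO HCT116 cells screened against the library; viability read after 5 days by CellTiter-Glo luminescence, expressed relative to DMSO-treated cells. Hits: KO viability below 40% with WT viability above 80%.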

[1] = test system: ARID1A-deficient OVISE OCCC xenografts; test: Mouse xenograft model, OVISE; assay type: in vivo, mice; conditions: PRIMA-1 25 mg/kg
Experimental: All mouse experiments were approved by the National Cancer Center (NCC) animal Ethical Committee. Cells were counted and re-suspended in a 1:1 mixture of 100 μl culture medium and 100 μl Matrigel (BD Biosciences) on ice. Thereafter, cells (RMG-I: 2×10^6 cells/mouse; TOV21G: 2×10^5 cells/mouse for ARP-246 treatment and 1×10^6 cells/mouse for BSO treatment; OVISE: 2×10^6 cells/mouse; TOV21G-shNT: 2×10^5 cells/mouse; and TOV21G-shGCLC: 2×10^5 cells/mouse) were injected subcutaneously into the flank of 6-week-old female BALB/c-nu/nu mice (CLEA and Charles River). In the subcutaneous model, once the tumors were palpable (about 3-14 days after implantation), mice were randomly divided into two groups. In the drug treatment group, mice were injected intraperitoneally with either PBS or compounds [APR-246 (50 mg/kg), PRIMA-1 (25 mg/kg), or BSO (750 mg/kg)] once daily for 12-14 days. In the doxycycline (Dox) treatment study, TOV21G-shNT cells and TOV21G-shGCLC cells were injected into the flanks of 6-week-old female BALB/c-nu/nu mice. […] Tumor growth was measured every several days using calipers. The volume of implanted tumors was calculated using the formula V=L×W2/2, where V is volume (mm^3), L is the largest diameter (mm), and W is the smallest diameter (mm). […]

[2] = test system: ARID1A-WT and ARID1A-KO HCT116 cells; test: Cell viability and colony formation assays; assay type: cell-based, human; conditions: cell viability 5 days, colony formation 10 days
Experimental: Cell viability was examined by measuring the cellular ATP level using the CellTiter-Glo Luminescent Cell Viability Assay (Promega). To measure cell viability after siRNA-mediated knockdown, cell lines were transfected with siRNAs (25 nM) using Lipofectamine RNAiMAX. After 48 hrs, cells were trypsinized and repeatedly transfected with siRNAs (25 nM) using Lipofectamine RNAiMAX. Cells were trypsinized after a further 48 hrs, counted, and reseeded at the specified density in 96-well plates. To measure cell viability after drug treatment, cells were trypsinized, counted, reseeded at the specified density in 96-well plates, and exposed to the indicated concentrations of drugs. Cell viability was measured using the CellTiter-Glo Luminescent Cell Viability Assay. Luminescence was measured using an Envision Multi-label plate reader (PerkinElmer).
The effect of drug treatment on cancer cell survival was evaluated in a colony formation assay. Cells were trypsinized, counted, reseeded at the specified density in 12-well plates, exposed to the indicated concentrations of drugs for 10-14 days, and fixed for 10 min in 50% (v/v) methanol containing 0.01% (w/v) crystal violet. Images were taken on LAS-3000 Imaging System (Fujifilm) and colonies were counted using Multi Gauge software.

p53, p21 = test: Immunoblot for p53 and p21; assay type: cell-based, human; conditions: ARID1A-WT and ARID1A-KO HCT116; 50 μM PRIMA-1, 50 μM APR-246, 10 μM Nutlin3a, 16 hrs
Experimental: The soluble fractions of whole-cell lysates were mixed with SDS sample buffer. […] The soluble fractions were mixed with SDS sample buffer. Tumor samples derived from xenografts were weighed and washed with PBS. […] The homogenized tumor samples were diluted in an additional 450 μl of NETN420 buffer, incubated for 30 min on ice, and centrifuged at 4° C. for 10 min at 15,000 rpm. The soluble fractions of whole-cell lysates were mixed with SDS sample buffer. Proteins were separated by SDS-PAGE, transferred to PVDF membranes, and immunoblotted with the indicated antibodies. β-actin was used as a loading control. Membranes were blocked overnight at 4° C. or for 1 hr at 25° C. with PVDF Blocking Reagent for Can Get Signal (TOYOBO) and then probed with Can Get Signal Solution 1 (TOYOBO) containing primary antibodies. After washing with TBS containing 0.1% Tween 20, the membranes were incubated with TBS containing 0.1% Tween 20, 1% BSA, and horseradish peroxidase-conjugated anti-mouse or anti-rabbit secondary antibodies, and visualized using Western Lightning ECL Pro (Perkin Elmer). Chemiluminescence signals were measured using LAS-3000 Imaging System (Fujifilm). Signal intensities were measured using Multi Gauge software.

ARID1A-KO HCT116 cells = test: Drug library screen, cell viability (CellTiter-Glo); assay type: cell-based, human; set-up: key to Cell viability, KO: % viability relative to DMSO solvent-treated cells; conditions: HCT116 ARID1A-KO; 10 μM for 5 days; relative to cells treated with solvent (DMSO)
Summary of the method: as §1

Structure (SMILES): O=C1C2CCN(CC2)C1(CO)CO [PRIMA-1]
- Cell viability, WT (ARID1A-WT HCT116 cells): 84.25
- body weight of mice [1]: without causing significant weight loss
- growth of xenografts (tumor volume) [1]: significantly suppressed the growth
- growth / survival of ARID1A-KO versus ARID1A-WT cells [2]: reproducibly suppressed the growth of ARID1A-KO cells but not ARID1A-WT cells
- expression of p53 and p21 (p53, p21): did not markedly affect expression of p53 or p21
- Cell viability, KO (ARID1A-KO HCT116 cells): 12.95
